Here are results for five compounds from patent US8343696B2, “Colored curable composition, fluorine-containing dipyrromethene compound and tautomer thereof, and fluorine-containing dipyrromethene metal complex and tautomer thereof, and color filter using the same and method for producing the color filter” (FUJIFILM Corporation, priority 2008, dated 2013).

Type in all cases: physicochemical
Series [1] is described as follows: Absorption spectrum in ethyl acetate solution (spectrophotometer UV-2400PC). An outline of the steps: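 Compounds dissolved in ethyl acetate and scanned on a UV-2400PC spectrophotometer to obtain λmax and molar absorption coefficient (ε). Absorbance at 450 nm reported after normalizing absorbance at λmax to 1.0.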
Series [2] in a line: Storage stability of colored resist solution (precipitation after one month at room temperature). Also on record: key: A: No precipitation was observed; B: Slight precipitation was observed; C: Precipitation was observed. As to conditions: negative-working colored resist solution, visual precipitation. In a few lines:
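The resist solution was mixed with dipyrromethene complex dye Ia-12 to give a negative-working UV-curable colored composition. It was stored for one month at room temperature and precipitation was visually graded: A none, B slight, C observed.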

Series [3] can be described thus: Light-fastness of coating film (color difference ΔEab before and after xenon lamp irradiation). The conditions noted are these: xenon lamp 20,000 luxes for 10 hours (200,000 lux·h). In a few lines: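 Coated glass substrate bearing the colored resin film was exposed to a xenon lamp at 20,000 lux for 10 hours (200,000 lux·h); color difference ΔEab before vs after exposure was measured. Graded A (ΔEab <6), B (6–10), C (>10); lower ΔEab means better light-fastness.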

Series [4] in a line: Heat resistance of coating film (color difference ΔEab before and after heating). As to conditions: 100° C. for 1 hour on hot plate. In a few lines: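 Glass substrate coated with the colored resin composition undercoat was heated on a hot plate at 100 °C for 1 h. Color difference ΔEab before versus after heating measured spectrophotometrically and graded: A <6, B 6–10, C >10.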

A short description of series [5]: Transmittance at 450 nm of the color filter. The conditions noted are these: negative-working colored resist, 1.0 μm film; transmittance at λmax normalized to 2%.

`CC1CC(C(C)(C)C)C(OC(=O)C2=C(c3ccccc3)C3=Cc4c(-c5ccccc5)c(C(=O)OC5C(C(C)(C)C)CC(C)CC5C(C)(C)C)c(NC(=O)c5ccc(F)c(F)c5)[n]4[Zn-]([OH])[N+]3=C2NC(=O)c2ccc(F)c(F)c2)C(C(C)(C)C)C1` (centres unmarked) [IIb-13]: in series [1], the “maximum absorption wavelength (λmax)” value amounted to 560 nm, the “molar absorption coefficient (ε)” value is reported as 106,300 and the “Abs value at 450 nm when normalized to Abs = 1.0 at λmax” value (from here on “Abs value at 450 nm when normalized”) came out at 0.0107. Further, the Storage stability entry in series [2] is recorded as “A”. Further, the Light-fastness entry in series [3] is reported as “A (ΔEab value was less than 6)”. Besides, the Heat resistance result in series [4] is reported as “A (ΔEab value was less than 6)”. In addition, the “Transmittance at 450 nm” value in series [5] is given as “A (Transmittance at 450 nm was 90% or more)”.
As to `CC1CC(C(C)(C)C)C(OC(=O)C2=C(c3ccccc3)C3=Cc4c(-c5ccccc5)c(C(=O)OC5C(C(C)(C)C)CC(C)CC5C(C)(C)C)c(NC(=O)c5cc(C(F)(F)F)cc(C(F)(F)F)c5)[n]4[Zn-]([OH])[N+]3=C2NC(=O)c2cc(C(F)(F)F)cc(C(F)(F)F)c2)C(C(C)(C)C)C1` (centres unmarked) [IIb-14], in series [1], the “maximum absorption wavelength (λmax)” value is given as 560 nm, the “molar absorption coefficient (ε)” value was 117,400 and the “Abs value at 450 nm when normalized” value is on record as 0.01. In addition, the Storage stability result in series [2] is listed as “A”. Besides, the Light-fastness result in series [3] is on record as “A (ΔEab value was less than 6)”. In addition, the Heat resistance entry in series [4] is listed as “A (ΔEab value was less than 6)”. Moreover, in series [5], the “Transmittance at 450 nm” value was “A (Transmittance at 450 nm was 90% or more)”.
Turning to `CC1CC(C(C)(C)C)C(OC(=O)c2c(-c3ccccc3)c3[n](c2NC(=O)c2c(F)c(F)c(F)c(F)c2F)[Zn-]([OH])[N+]2=C(NC(=O)C(C)Sc4cc(C(=O)O)cc(C(=O)O)c4)C(C#N)=C(c4ccccc4)C2=C3)C(C(C)(C)C)C1` (centres unmarked) [Ib-75], in series [1], the “maximum absorption wavelength (λmax)” value is reported as 564 nm, the “molar absorption coefficient (ε)” value is recorded as 106,400 and the “Abs value at 450 nm when normalized” value is 0.0099. The Storage stability entry in series [2] is on record as “A”. Moreover, the Light-fastness result in series [3] was “A (ΔEab value was less than 6)”. Moreover, the Heat resistance entry in series [4] is listed as “A (ΔEab value was less than 6)”. Further, the “Transmittance at 450 nm” value in series [5] is “A (Transmittance at 450 nm was 90% or more)”.
For the compound `CC1CC(C(C)(C)C)C(OC(=O)C2=C(c3ccccc3)C3=Cc4c(-c5ccccc5)c(C(=O)OC5C(C(C)(C)C)CC(C)CC5C(C)(C)C)c(NC(=O)c5c(F)c(F)c(C(=O)O)c(F)c5F)[n]4[Zn-]([OH])[N+]3=C2NC(=O)c2c(F)c(F)c(C(=O)O)c(F)c2F)C(C(C)(C)C)C1` (centres unmarked) [IIb-38], in series [1], the “maximum absorption wavelength (λmax)” value is 561 nm, the “molar absorption coefficient (ε)” value is 105,900 and the “Abs value at 450 nm when normalized” value was determined as 0.0099. In series [2], the Storage stability entry is given as “A”. Moreover, the Light-fastness result in series [3] is recorded as “A (ΔEab value was less than 6)”. In addition, the Heat resistance result in series [4] is “A (ΔEab value was less than 6)”. In series [5], the “Transmittance at 450 nm” value was “A (Transmittance at 450 nm was 90% or more)”.
For `CC1CC(C(C)(C)C)C(OC(=O)C2=C(c3ccccc3)C3=Cc4c(-c5ccccc5)c(C(=O)OC5C(C(C)(C)C)CC(C)CC5C(C)(C)C)c(NC(=O)c5cc(F)c(F)c(F)c5)[n]4[Zn-]([OH])[N+]3=C2NC(=O)c2cc(F)c(F)c(F)c2)C(C(C)(C)C)C1` (centres unmarked) [IIb-32], in series [1], the “maximum absorption wavelength (λmax)” value amounted to 559 nm, the “molar absorption coefficient (ε)” value is recorded as 91,400 and the “Abs value at 450 nm when normalized” value is 0.0143. The Storage stability result in series [2] is recorded as “A”. The Light-fastness result in series [3] is recorded as “A (ΔEab value was less than 6)”. Moreover, the Heat resistance entry in series [4] was “A (ΔEab value was less than 6)”. For the same compound, the “Transmittance at 450 nm” value in series [5] was “A (Transmittance at 450 nm was 90% or more)”.
